In one series the test system is β-galactosidase. In words: β-Galactosidase activity assay in M. smegmatis. Type of series: cell-based.
The subject of a further series is GFP. Format: cell-based, M. tuberculosis.
The next series has as its system M. smegmatis RiboS-katG. Briefly: Isoniazid antibiotic resistance assay, RiboS-katG strain.
The subject of another series is lacZ reporter gene. In words: β-galactosidase assay in B. subtilis. Particulars: switches B and E compared.

Procedure for lacZ reporter gene: B. subtilis strain JH642 (2) was grown at 37° C. in LB with shaking (250 rpm). […] To assay for β-galactosidase activity, strains harboring the riboswitches were grown overnight in LB media with 20 μg/mL kanamycin. In the morning, cells were diluted 1:100 into fresh selective media containing 1 mM IPTG and either 0 or 2 mM theophylline. β-galactosidase assays were performed by the method of Miller (13) using permeabilization with toluene. […] Error bars are ±SD.

For `Cn1c(=O)c2[nH]cnc2n(C)c1=O` [theophylline], the “theophylline concentration of maximum β-galactosidase reporter expression” value in the series with β-galactosidase is about 2 mM. Further, the “theophylline concentration of maximal GFP expression” value with GFP is listed as about 2 mM. Regarding `NNC(=O)c1ccncc1` [isoniazid], the “isoniazid EC50 with increasing theophylline concentrations” value in the series on M. smegmatis RiboS-katG (0-10 mM theophylline) is listed as “the EC50 decreases”. In the series with M. smegmatis RiboS-katG (no theophylline), the “isoniazid phenotype in the absence of theophylline” value is reported as “isoniazid resistance phenotype”.

B1: Riboswitch B: synthetic theophylline-responsive riboswitch, mRNA sequence SEQ ID NO: 12 (nucleic acid)
chain: GGUACCGGUGAUACCAGCAUCGUCUUGAUGCCCUUGGCAGCACCCGCUGCGCAGGGGGUAUCAACAAGAUG
modifications: chemistry not fully specified
On to B1, for which the “activation ratios and levels of expression compared” value in the series on lacZ reporter gene is given as “comparable activation ratios, but substantially different levels of expression”.
